# Values of other authors as cited in patent publication US20260158011A1 (Achieve Life Sciences, Inc., priority 2023, published 2026).
# Like-named read-outs stand apart in the source and are kept apart here.
# What was measured:
# [1] = test system: smokers; conditions: cited from earlier work
# [2] = test system: smokers; conditions: Cochrane, Chantix (n > 7000); cited from earlier work
# [3] = biological target: neuronal alpha4, beta2 (α4β2) receptors (Homo sapiens, UniProt P17787+P43681); conditions: background studies; cited from earlier work
# Sequence of neuronal alpha4, beta2 (α4β2) receptors (P43681 29-627 limits assumed): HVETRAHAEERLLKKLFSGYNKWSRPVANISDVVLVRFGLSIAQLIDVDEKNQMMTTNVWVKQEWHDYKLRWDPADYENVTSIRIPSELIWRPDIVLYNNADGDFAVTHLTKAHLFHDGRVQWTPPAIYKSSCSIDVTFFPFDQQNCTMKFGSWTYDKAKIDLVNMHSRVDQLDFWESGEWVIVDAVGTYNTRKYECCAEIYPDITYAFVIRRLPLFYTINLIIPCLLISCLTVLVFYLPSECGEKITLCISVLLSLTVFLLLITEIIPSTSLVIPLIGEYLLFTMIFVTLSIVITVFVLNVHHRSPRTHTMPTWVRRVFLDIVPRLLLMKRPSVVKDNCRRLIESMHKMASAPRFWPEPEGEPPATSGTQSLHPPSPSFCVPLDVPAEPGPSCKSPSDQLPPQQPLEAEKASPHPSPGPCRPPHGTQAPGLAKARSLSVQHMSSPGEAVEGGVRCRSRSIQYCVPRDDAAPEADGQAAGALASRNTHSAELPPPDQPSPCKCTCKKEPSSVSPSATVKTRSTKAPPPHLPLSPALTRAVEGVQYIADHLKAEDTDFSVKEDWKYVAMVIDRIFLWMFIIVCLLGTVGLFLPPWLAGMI
# Sequence of neuronal alpha4, beta2 (α4β2) receptors (P17787 26-502): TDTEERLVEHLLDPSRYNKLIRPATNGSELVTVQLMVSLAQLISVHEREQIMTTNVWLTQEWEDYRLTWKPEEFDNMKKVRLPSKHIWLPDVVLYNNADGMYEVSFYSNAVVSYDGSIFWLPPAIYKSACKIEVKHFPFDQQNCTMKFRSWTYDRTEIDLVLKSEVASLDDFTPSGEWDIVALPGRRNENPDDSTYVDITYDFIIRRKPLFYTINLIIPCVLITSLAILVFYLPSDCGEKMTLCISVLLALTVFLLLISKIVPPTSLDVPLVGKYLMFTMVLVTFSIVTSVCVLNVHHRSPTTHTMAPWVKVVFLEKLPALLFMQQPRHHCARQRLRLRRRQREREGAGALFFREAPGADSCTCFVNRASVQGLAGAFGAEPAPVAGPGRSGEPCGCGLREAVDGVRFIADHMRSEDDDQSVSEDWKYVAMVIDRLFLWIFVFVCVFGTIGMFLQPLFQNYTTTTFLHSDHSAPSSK
smiles,measurement,setting,value
"c1cnc2cc3c(cc2n1)[C@@H]1CNC[C@H]3C1 [Chantix ®, varenicline]",OR at End of Treatment,"[1]; Chantix 12 weeks (EAGLES), versus placebo",4.0
same,Drug-placebo difference in quit rate at End of Treatment,[1]; Chantix 12 weeks (EAGLES),24.3%
same,Quit Rate at End of Treatment,[1]; Chantix 12 weeks (EAGLES),38.0%
same,OR at 4 Weeks Off Treatment,"[1]; Chantix (EAGLES), versus placebo",3.5
same,Drug-placebo difference in quit rate at 4 Weeks Off Treatment,[1]; Chantix (EAGLES),20.7%
same,Quit Rate at 4 Weeks Off Treatment,[1]; Chantix (EAGLES),33.2%
same,OR at 4 Weeks Treatment,"[1]; Chantix (ONCKEN), versus placebo",3.1
same,Drug-placebo difference in quit rate at 4 Weeks Treatment,[1]; Chantix (ONCKEN),21.4%
same,Quit Rate at 4 Weeks Treatment,[1]; Chantix (ONCKEN),37.7%
same,Quit rate at 24 weeks,"[1]; EAGLES, U.S. patients (N=1065)",16%
same,Overall quit rate at 24 weeks,"[1]; EAGLES, all regions",22%
same,CAR weeks 9-24 % (95% CI),"[1]; EAGLES, region Non-U.S.",27.9 (25.2-30.8) % (95% CI)
same,"Versus placebo OR (95% CI), CAR weeks 9-24","[1]; EAGLES, region Non-U.S.",2.80 (2.20-3.55)
same,CAR weeks 9-24 % (95% CI),"[1]; EAGLES, region U.S.",16.1 (14.0-18.4) % (95% CI)
same,"Versus placebo OR (95% CI), CAR weeks 9-24","[1]; EAGLES, region U.S.",2.66 (1.99-3.55)
same,Serious AEs,[2],3.3%
same,TEAE: Abnormal dreams,[2],12.5%
same,TEAE: Headache,[2],12.7%
same,TEAE: Insomnia,[2],14.2%
same,TEAE: Nausea,[2],27.8%
"CN1CCCC1c1cccnc1 (stereo not drawn) [nicotine, reference compound]",Binding to α4β2 receptors,[3],bind strongly and preferentially
